Data as given in the kinase profiling compilation of Christmann-Franck et al. (2016).

Experiments:
Assay in all cases: KINOMEscan competition binding
Conditions in all cases: compound 10.0 µM
HIPK1 (human) = HIPK1 (human) (UniProt Q86Z02)
ULK2 (human) = ULK2 (human) (UniProt Q8IYT8)
PRKCQ (human) = PRKCQ (human) (UniProt Q04759)
MAPK14 (human) = MAPK14 (human) (UniProt Q16539)
FGFR1 (human) = FGFR1 (human) (UniProt P11362)
PRPF4B (human) = PRPF4B (human) (UniProt Q13523)
FLT1 (human) = FLT1 (human) (UniProt P17948)
WEE2 (human) = WEE2 (human) (UniProt P0C1S8)
CDKL2 (human) = CDKL2 (human) (UniProt Q92772)
FES (human) = FES (human) (UniProt P07332)
CDKL5 (human) = CDKL5 (human) (UniProt O76039)
TNNI3K (human) = TNNI3K (human) (UniProt Q59H18)
INSR (human) = INSR (human) (UniProt P06213)
BMPR1B (human) = BMPR1B (human) (UniProt O00238)
MARK4 (human) = MARK4 (human) (UniProt Q96L34)
PIM2 (human) = PIM2 (human) (UniProt Q9P1W9)
CSK (human) = CSK (human) (UniProt P41240)
ZAP70 (human) = ZAP70 (human) (UniProt P43403)
[1] = test system: PIK3CA (human), P42336 [H1047Y]
MAP2K1 (human) = MAP2K1 (human) (UniProt Q02750)
CLK1 (human) = CLK1 (human) (UniProt P49759)
STK38 (human) = STK38 (human) (UniProt Q15208)
RPS6KA1 KD1 (human) = RPS6KA1 KD1 (human) (UniProt Q15418)
PRKG2 (human) = PRKG2 (human) (UniProt Q13237)
EPHA3 (human) = EPHA3 (human) (UniProt P29320)
BRSK2 (human) = BRSK2 (human) (UniProt Q8IWQ3)
RPS6KA2 KD2 (human) = RPS6KA2 KD2 (human) (UniProt Q15349)
PRKG1 (human) = PRKG1 (human) (UniProt Q13976)
AAK1 (human) = AAK1 (human) (UniProt Q2M2I8)
EIF2AK2 (human) = EIF2AK2 (human) (UniProt P19525)
EPHB6 (human) = EPHB6 (human) (UniProt O15197)
[2] = test system: PIK3CA (human), P42336 [H1047L]
PLK4 (human) = PLK4 (human) (UniProt O00444)
HIPK4 (human) = HIPK4 (human) (UniProt Q8NE63)
AKT2 (human) = AKT2 (human) (UniProt P31751)
CAMK1G (human) = CAMK1G (human) (UniProt Q96NX5)
STK3 (human) = STK3 (human) (UniProt Q13188)
EPHA2 (human) = EPHA2 (human) (UniProt P29317)
NTRK1 (human) = NTRK1 (human) (UniProt P04629)
CAMKK2 (human) = CAMKK2 (human) (UniProt Q96RR4)
TLK1 (human) = TLK1 (human) (UniProt Q9UKI8)
MLTK (human) = MLTK (human) (UniProt Q9NYL2)

Sequence of HIPK1 (human) (Q86Z02 whole entry, looked up): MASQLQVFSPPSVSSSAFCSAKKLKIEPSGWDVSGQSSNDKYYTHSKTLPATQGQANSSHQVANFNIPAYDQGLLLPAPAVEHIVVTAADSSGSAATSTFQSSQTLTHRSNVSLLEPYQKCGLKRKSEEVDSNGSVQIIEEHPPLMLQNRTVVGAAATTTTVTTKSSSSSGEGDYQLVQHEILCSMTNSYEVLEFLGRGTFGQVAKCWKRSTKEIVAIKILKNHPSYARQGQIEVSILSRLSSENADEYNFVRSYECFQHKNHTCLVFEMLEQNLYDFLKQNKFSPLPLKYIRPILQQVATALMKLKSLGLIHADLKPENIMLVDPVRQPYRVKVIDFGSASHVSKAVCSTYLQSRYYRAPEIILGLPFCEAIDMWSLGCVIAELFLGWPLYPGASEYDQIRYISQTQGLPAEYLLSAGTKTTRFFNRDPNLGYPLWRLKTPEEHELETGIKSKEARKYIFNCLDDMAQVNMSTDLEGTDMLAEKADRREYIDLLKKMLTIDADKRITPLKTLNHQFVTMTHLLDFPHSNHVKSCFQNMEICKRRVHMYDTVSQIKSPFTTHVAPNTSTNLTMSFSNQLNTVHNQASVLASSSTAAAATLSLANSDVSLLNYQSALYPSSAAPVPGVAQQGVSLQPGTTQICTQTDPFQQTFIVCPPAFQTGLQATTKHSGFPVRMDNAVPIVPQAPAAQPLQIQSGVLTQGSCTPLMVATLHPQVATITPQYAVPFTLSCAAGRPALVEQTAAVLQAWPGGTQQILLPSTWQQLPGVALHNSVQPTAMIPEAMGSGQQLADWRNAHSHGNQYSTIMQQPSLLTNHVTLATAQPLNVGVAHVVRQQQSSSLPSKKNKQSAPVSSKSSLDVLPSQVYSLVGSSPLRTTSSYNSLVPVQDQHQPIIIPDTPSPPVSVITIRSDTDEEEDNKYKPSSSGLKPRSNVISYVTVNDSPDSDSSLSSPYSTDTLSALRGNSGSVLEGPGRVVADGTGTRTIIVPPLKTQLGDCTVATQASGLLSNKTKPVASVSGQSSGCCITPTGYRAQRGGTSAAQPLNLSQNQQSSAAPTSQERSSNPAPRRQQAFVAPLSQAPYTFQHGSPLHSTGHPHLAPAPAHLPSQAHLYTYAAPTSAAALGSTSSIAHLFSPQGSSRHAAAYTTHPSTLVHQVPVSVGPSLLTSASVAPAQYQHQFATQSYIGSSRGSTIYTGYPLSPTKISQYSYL
Sequence of RPS6KA1 KD1 (human) (Q15418 whole entry, looked up): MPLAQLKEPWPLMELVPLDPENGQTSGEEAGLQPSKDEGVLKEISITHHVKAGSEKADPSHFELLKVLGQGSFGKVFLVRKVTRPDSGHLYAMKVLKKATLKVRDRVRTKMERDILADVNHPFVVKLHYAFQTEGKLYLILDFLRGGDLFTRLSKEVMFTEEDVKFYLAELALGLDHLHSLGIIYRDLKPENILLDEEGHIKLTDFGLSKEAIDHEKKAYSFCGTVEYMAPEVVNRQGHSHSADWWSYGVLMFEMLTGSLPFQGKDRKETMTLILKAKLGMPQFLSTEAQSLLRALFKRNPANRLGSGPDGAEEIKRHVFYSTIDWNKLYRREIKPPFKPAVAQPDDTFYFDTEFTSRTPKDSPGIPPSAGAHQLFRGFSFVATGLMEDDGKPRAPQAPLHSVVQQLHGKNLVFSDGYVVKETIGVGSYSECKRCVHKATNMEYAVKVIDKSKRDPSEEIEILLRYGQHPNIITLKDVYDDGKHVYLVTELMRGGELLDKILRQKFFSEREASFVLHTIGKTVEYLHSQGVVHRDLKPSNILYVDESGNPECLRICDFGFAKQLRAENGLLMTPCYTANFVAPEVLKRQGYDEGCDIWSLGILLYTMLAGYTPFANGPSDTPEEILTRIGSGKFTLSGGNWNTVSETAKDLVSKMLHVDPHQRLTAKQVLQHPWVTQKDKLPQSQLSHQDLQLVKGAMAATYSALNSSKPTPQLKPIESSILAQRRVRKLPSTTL
Sequence of PLK4 (human) (O00444 whole entry, looked up): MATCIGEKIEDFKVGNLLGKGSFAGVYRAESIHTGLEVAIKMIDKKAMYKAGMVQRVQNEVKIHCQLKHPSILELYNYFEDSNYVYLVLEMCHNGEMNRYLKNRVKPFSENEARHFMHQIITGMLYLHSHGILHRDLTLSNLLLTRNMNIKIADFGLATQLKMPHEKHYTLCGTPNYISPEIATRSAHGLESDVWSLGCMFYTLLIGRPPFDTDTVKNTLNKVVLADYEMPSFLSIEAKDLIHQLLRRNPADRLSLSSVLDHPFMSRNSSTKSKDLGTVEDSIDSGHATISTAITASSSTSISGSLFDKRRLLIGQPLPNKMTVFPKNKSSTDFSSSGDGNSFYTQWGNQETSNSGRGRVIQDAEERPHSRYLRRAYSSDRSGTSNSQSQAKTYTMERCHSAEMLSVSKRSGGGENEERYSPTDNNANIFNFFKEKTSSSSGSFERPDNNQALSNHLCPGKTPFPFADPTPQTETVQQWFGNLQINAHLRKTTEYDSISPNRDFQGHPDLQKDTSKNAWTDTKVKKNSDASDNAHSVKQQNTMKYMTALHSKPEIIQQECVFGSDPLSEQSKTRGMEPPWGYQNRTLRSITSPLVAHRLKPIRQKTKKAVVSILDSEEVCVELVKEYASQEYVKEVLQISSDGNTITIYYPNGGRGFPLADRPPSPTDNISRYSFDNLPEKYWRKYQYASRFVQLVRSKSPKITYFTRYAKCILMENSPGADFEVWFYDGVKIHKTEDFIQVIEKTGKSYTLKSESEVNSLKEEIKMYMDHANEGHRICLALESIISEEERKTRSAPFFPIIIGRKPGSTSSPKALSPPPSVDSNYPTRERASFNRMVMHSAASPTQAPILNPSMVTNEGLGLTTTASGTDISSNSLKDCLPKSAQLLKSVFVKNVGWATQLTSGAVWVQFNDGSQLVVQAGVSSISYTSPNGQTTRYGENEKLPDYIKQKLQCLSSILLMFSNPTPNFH
Sequence of MARK4 (human) (Q96L34 whole entry, looked up): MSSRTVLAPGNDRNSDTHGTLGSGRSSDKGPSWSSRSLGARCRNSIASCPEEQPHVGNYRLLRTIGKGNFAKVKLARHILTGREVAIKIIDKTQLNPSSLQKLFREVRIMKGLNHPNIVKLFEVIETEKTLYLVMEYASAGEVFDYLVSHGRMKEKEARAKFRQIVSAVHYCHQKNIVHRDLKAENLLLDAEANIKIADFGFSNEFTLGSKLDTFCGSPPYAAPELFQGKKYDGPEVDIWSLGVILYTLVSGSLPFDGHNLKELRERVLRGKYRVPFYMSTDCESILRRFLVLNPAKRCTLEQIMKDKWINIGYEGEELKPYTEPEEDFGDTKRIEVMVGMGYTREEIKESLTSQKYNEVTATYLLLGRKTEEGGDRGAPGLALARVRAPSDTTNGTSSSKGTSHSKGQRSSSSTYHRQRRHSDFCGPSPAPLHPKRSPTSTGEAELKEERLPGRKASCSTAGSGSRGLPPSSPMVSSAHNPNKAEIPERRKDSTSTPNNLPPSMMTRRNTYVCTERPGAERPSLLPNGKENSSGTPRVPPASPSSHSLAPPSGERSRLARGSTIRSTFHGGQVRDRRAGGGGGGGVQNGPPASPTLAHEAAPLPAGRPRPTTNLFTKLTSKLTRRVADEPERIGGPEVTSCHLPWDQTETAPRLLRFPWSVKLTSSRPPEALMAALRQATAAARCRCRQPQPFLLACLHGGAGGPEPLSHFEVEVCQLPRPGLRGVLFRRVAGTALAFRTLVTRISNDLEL
Sequence of PIM2 (human) (Q9P1W9 whole entry, looked up): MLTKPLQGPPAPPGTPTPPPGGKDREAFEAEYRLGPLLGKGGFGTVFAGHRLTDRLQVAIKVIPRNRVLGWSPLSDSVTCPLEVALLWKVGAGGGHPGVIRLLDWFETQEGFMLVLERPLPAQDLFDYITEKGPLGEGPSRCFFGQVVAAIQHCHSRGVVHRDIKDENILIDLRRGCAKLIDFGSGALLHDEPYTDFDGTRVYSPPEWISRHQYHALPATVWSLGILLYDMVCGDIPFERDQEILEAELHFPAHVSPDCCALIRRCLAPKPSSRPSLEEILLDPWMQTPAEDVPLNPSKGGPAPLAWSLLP
Sequence of ZAP70 (human) (P43403 whole entry, looked up): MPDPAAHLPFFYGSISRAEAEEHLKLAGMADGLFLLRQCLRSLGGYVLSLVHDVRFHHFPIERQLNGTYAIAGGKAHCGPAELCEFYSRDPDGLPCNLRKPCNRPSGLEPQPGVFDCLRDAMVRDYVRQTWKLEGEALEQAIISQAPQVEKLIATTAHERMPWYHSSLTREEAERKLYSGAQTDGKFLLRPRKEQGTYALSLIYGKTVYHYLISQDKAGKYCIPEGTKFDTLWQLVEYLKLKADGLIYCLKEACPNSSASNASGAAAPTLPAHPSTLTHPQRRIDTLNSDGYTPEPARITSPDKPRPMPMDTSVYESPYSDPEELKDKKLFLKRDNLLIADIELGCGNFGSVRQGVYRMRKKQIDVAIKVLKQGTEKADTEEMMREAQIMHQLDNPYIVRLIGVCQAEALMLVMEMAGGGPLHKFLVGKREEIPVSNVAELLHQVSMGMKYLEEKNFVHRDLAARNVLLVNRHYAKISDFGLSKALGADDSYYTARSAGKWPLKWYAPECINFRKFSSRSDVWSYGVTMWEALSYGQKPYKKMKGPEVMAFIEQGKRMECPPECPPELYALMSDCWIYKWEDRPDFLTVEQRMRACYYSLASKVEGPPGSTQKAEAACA
Sequence of STK38 (human) (Q15208 whole entry, looked up): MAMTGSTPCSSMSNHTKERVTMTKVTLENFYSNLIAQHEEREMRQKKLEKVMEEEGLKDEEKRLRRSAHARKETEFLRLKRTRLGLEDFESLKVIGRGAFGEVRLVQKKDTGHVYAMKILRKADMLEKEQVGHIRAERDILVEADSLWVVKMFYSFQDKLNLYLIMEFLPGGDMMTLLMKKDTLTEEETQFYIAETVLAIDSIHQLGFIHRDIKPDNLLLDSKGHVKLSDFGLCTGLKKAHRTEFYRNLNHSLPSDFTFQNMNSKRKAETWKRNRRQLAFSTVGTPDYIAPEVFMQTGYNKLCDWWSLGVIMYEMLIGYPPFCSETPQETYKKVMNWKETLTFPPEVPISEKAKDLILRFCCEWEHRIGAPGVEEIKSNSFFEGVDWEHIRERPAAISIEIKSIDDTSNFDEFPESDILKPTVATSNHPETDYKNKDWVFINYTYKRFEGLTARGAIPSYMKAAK

Cc1cnc(-c2cnc(NCCNc3ccc(C#N)cn3)nc2-c2ccc(Cl)cc2Cl)[nH]1
kinase still bound, per cent of control (HIPK1 (human)): 87% | kinase still bound, per cent of control (ULK2 (human)): 96% | kinase still bound, per cent of control (PRKCQ (human)): 100% | kinase still bound, per cent of control (MAPK14 (human)): 98% | kinase still bound, per cent of control (FGFR1 (human)): 100% | kinase still bound, per cent of control (PRPF4B (human)): 100% | kinase still bound, per cent of control (FLT1 (human)): 79% | kinase still bound, per cent of control (WEE2 (human)): 100% | kinase still bound, per cent of control (CDKL2 (human)): 3.8% | kinase still bound, per cent of control (FES (human)): 100% | kinase still bound, per cent of control (CDKL5 (human)): 100% | kinase still bound, per cent of control (TNNI3K (human)): 100% | kinase still bound, per cent of control (INSR (human)): 100% | kinase still bound, per cent of control (BMPR1B (human)): 92% | kinase still bound, per cent of control (MARK4 (human)): 100% | kinase still bound, per cent of control (PIM2 (human)): 89% | kinase still bound, per cent of control (CSK (human)): 100% | kinase still bound, per cent of control (ZAP70 (human)): 100% | kinase still bound, per cent of control [1]: 69% | kinase still bound, per cent of control (MAP2K1 (human)): 100% | kinase still bound, per cent of control (CLK1 (human)): 49% | kinase still bound, per cent of control (STK38 (human)): 100% | kinase still bound, per cent of control (RPS6KA1 KD1 (human)): 100% | kinase still bound, per cent of control (PRKG2 (human)): 100% | kinase still bound, per cent of control (EPHA3 (human)): 100% | kinase still bound, per cent of control (BRSK2 (human)): 97% | kinase still bound, per cent of control (RPS6KA2 KD2 (human)): 100% | kinase still bound, per cent of control (PRKG1 (human)): 100% | kinase still bound, per cent of control (AAK1 (human)): 100% | kinase still bound, per cent of control (EIF2AK2 (human)): 50% | kinase still bound, per cent of control (EPHB6 (human)): 100% | kinase still bound, per cent of control [2]: 100% | kinase still bound, per cent of control (PLK4 (human)): 69% | kinase still bound, per cent of control (HIPK4 (human)): 43% | kinase still bound, per cent of control (AKT2 (human)): 100% | kinase still bound, per cent of control (CAMK1G (human)): 100% | kinase still bound, per cent of control (STK3 (human)): 100% | kinase still bound, per cent of control (EPHA2 (human)): 96% | kinase still bound, per cent of control (NTRK1 (human)): 100% | kinase still bound, per cent of control (CAMKK2 (human)): 100% | kinase still bound, per cent of control (TLK1 (human)): 75%

COc1ccc(CNC(=O)Nc2ncc([N+](=O)[O-])s2)cc1
kinase still bound, per cent of control (HIPK1 (human)): 58% | kinase still bound, per cent of control (ULK2 (human)): 100% | kinase still bound, per cent of control (PRKCQ (human)): 100% | kinase still bound, per cent of control (MAPK14 (human)): 100% | kinase still bound, per cent of control (FGFR1 (human)): 100% | kinase still bound, per cent of control (PRPF4B (human)): 100% | kinase still bound, per cent of control (FLT1 (human)): 57% | kinase still bound, per cent of control (WEE2 (human)): 100% | kinase still bound, per cent of control (CDKL2 (human)): 40% | kinase still bound, per cent of control (FES (human)): 99% | kinase still bound, per cent of control (CDKL5 (human)): 100% | kinase still bound, per cent of control (MLTK (human)): 100% | kinase still bound, per cent of control (TNNI3K (human)): 100% | kinase still bound, per cent of control (BMPR1B (human)): 89% | kinase still bound, per cent of control (MARK4 (human)): 100% | kinase still bound, per cent of control (PIM2 (human)): 76% | kinase still bound, per cent of control (CSK (human)): 100% | kinase still bound, per cent of control (ZAP70 (human)): 100% | kinase still bound, per cent of control [1]: 100% | kinase still bound, per cent of control (MAP2K1 (human)): 100% | kinase still bound, per cent of control (CLK1 (human)): 62% | kinase still bound, per cent of control (STK38 (human)): 100% | kinase still bound, per cent of control (RPS6KA1 KD1 (human)): 100% | kinase still bound, per cent of control (PRKG2 (human)): 100% | kinase still bound, per cent of control (EPHA3 (human)): 100% | kinase still bound, per cent of control (BRSK2 (human)): 100% | kinase still bound, per cent of control (RPS6KA2 KD2 (human)): 83% | kinase still bound, per cent of control (PRKG1 (human)): 97% | kinase still bound, per cent of control (AAK1 (human)): 100% | kinase still bound, per cent of control (EIF2AK2 (human)): 76% | kinase still bound, per cent of control (EPHB6 (human)): 100% | kinase still bound, per cent of control [2]: 100% | kinase still bound, per cent of control (PLK4 (human)): 99% | kinase still bound, per cent of control (HIPK4 (human)): 49% | kinase still bound, per cent of control (AKT2 (human)): 99% | kinase still bound, per cent of control (CAMK1G (human)): 100% | kinase still bound, per cent of control (STK3 (human)): 3.4% | kinase still bound, per cent of control (EPHA2 (human)): 95% | kinase still bound, per cent of control (CAMKK2 (human)): 100% | kinase still bound, per cent of control (TLK1 (human)): 96%
